The source of these data is patent US20090239845A1, “PYRAZOLE COMPOUNDS AS PROSTAGLANDIN RECEPTORS LIGANDS” (priority 2005, published 2009).

The structures appear in SMILES notation. Structures can show the parent of a compound that is named as a salt.

For the experiment, the target named is T1, human EP1 receptor (Homo sapiens, UniProt P34995).
T1 construct: expressed in transfected cells; host or cells: CHO-K1
T1 sequence (P34995 1-402): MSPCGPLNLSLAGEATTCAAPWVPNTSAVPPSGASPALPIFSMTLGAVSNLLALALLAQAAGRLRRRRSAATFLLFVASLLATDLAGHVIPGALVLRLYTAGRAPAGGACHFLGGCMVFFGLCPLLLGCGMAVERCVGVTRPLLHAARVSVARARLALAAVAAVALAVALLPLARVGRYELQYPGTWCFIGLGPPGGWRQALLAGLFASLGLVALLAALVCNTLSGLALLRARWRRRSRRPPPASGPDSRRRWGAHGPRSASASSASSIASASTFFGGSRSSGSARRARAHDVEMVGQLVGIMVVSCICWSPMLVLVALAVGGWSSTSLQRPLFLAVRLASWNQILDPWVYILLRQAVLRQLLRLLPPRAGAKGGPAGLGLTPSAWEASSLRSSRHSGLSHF
In words: human EP1 calcium mobilisation assay. Format: cell-based. Conditions: negative logarithm10 of the antagonist dissociation constant; CHO-K1 cells, PGE2; free bases or sodium salts; averages of a number of experiments; read-out: functional pKi value (converted). The protocol:
Briefly, the antagonist properties of compounds are assessed by their ability to inhibit the mobilisation of intracellular calcium ([Ca^2+]i) in response to activation of EP1 or EP3 receptors by the natural agonist hormone prostaglandin E2 (PGE2). Increasing concentrations of antagonist reduce the amount of calcium that a given concentration of PGE2 can mobilise. The net effect is to displace the PGE2 concentration-effect curve to higher concentrations of PGE2. The amount of calcium produced is assessed using a calcium-sensitive fluorescent dye such as Fluo-4, AM and a suitable instrument such as a Fluorimetric Imaging Plate Reader (FLIPR). Increasing amounts of [Ca^2+]i produced by receptor activation increase the amount of fluorescence produced by the dye and give rise to an increasing signal. The signal may be detected using the FLIPR instrument and the data generated may be analysed with suitable curve-fitting software.
The human EP1 or EP3 calcium mobilisation assay (hereafter referred to as ‘the calcium assay’) utilises Chinese hamster ovary-K1 (CHO-K1) cells into which a stable (pCIN; BioTechniques 20 (1996): 102-110) vector containing either EP1 or EP3 cDNA has previously been transfected. Cells are cultured in suitable flasks containing culture medium such as DMEM:F-12 supplemented with 10% v/v foetal calf serum, 2 mM L-glutamine, 0.25 mg/ml geneticin, 100 μM flurbiprofen and 10 μg/ml puromycin.
For assay, cells are harvested using a proprietary reagent that dislodges cells such as Versene. Cells are re-suspended in a suitable quantity of fresh culture media for introduction into a 384-well plate. Following incubation for 24 hours at 37° C. the culture media is replaced with a medium containing Fluo-4 and the detergent pluronic acid, and a further incubation takes place. Concentrations of compounds are then added to the plate in order to construct concentration-effect curves. This may be performed on the FLIPR in order to assess the agonist properties of the compounds. Concentrations of PGE2 are then added to the plate in order to assess the antagonist properties of the compounds.
The data so generated may be analysed by means of a computerised curve-fitting routine. The concentration of compound that elicits a half-maximal inhibition of the calcium mobilisation induced by PGE2 (plC50) may then be estimated.
(In general: Calcium flux is commonly read through the fluorescence of an indicator in the cells.)
For the compound `Cc1cc(NC(=O)c2cnccn2)nn1Cc1cc(Cl)ccc1OCc1ccccc1` [Example 144, N-[1-({5-Chloro-2-[(phenylmethyl)oxy]phenyl}methyl)-5-methyl-1H-pyrazol-3-yl]-2-pyrazinecarboxamide], the Ki is more than 1000 nM.
In the case of `Cc1cc(NC(=O)c2ccccn2)nn1Cc1cc(Cl)ccc1OCc1ccccc1` [Example 139, N-[1-({5-Chloro-2-[(phenylmethyl)oxy]phenyl}methyl)-5-methyl-1H-pyrazol-3-yl]-2-pyridinecarboxamide], the Ki is more than 1000 nM.
In the case of `Cc1cc(C(=O)Nc2ccccn2)nn1Cc1cc(Cl)ccc1OCc1ccccc1` [Example 297, 1-({5-Chloro-2-[(phenylmethyl)oxy]phenyl}methyl)-5-methyl-N-2-pyridinyl-1H-pyrazole-3-carboxamide], the Ki is more than 1000 nM.
Take `Cc1cc(NC(=O)c2ccc(C#N)cc2)nn1Cc1cc(Cl)ccc1OCc1ccccc1` [Example 142, N-[1-({5-Chloro-2-[(phenylmethyl)oxy]phenyl}methyl)-5-methyl-1H-pyrazol-3-yl]-4-cyanobenzamide]: the Ki was more than 1000 nM.
For the compound `Cc1cc(C(=O)NCc2ccccc2)nn1Cc1cc(Cl)ccc1OCc1ccccc1` [Example 292, 1-({5-Chloro-2-[(phenylmethyl)oxy]phenyl}methyl)-5-methyl-N-(phenylmethyl)-1H-pyrazol-3-carboxamide], the Ki is more than 1000 nM.
As to `CNC(=O)c1cc(C)n(Cc2cc(Cl)ccc2OCc2ccccc2)n1` [Example 296, 1-({5-Chloro-2-[(phenylmethyl)oxy]phenyl}methyl)-N,5-dimethyl-1H-pyrazole-3-carboxamide], the Ki is more than 1000 nM.
As to `Cc1cc(-c2nc3ccccc3[nH]2)nn1Cc1cc(Cl)ccc1OCc1ccccc1` [Example 385, 2-[1-({5-Chloro-2-[(phenylmethyl)oxy]phenyl}methyl)-5-methyl-1H-pyrazol-3-yl]-1H-benzimidazole], the Ki is more than 1000 nM.
Consider `Cc1cc(NC(=O)c2ccc(CN3CCCCC3)c(F)c2)nn1Cc1cc(Cl)ccc1OCC(C)C` [Example 436, N-[1-({5-chloro-2-[(2-methylpropyl)oxy]phenyl}methyl)-5-methyl-1H-pyrazol-3-yl]-3-fluoro-4-(1-piperidinylmethyl)benzamide hydrochloride], for which the Ki is more than 1000 nM.
Consider `Cc1cc(NC(=O)Cc2ccccc2)nn1Cc1cc(Cl)ccc1OCc1ccccc1Cl` [Example 129, N-{1-[(5-Chloro-2-{[(2-chlorophenyl)methyl]oxy}phenyl)methyl]-5-methyl-1H-pyrazol-3-yl}-2-phenylacetamide], for which the Ki was more than 1000 nM.
As to `COC(=O)Nc1cc(C)n(Cc2cc(Cl)ccc2OCc2ccccc2)n1` [Example 65, Methyl[1-({5-chloro-2-[(phenylmethyl)oxy]phenyl}methyl)-5-methyl-1H-pyrazol-3-yl]carbamate], the Ki was more than 1000 nM.
As for `Cc1cc(NC(=O)c2ccc3c(c2)CCN(C(=O)OC(C)(C)C)CC3)nn1Cc1cc(Cl)ccc1OCC(C)C` [Example 97, 1,1-Dimethylethyl 7-({[1-({5-chloro-2-[(2-methylpropyl)oxy]phenyl}methyl)-5-methyl-1H-pyrazol-3-yl]amino}carbonyl)-1,2,4,5-tetrahydro-3H-3-benzazepine-3-carboxylate], the Ki was more than 1000 nM.
Take `Cc1cc(NC(=O)Cc2ccccc2)nn1Cc1cc(Cl)ccc1OCc1ccc(F)cc1F` [Example 122, N-{1-[(5-Chloro-2-{[(2,4-difluorophenyl)methyl]oxy}phenyl)methyl]-5-methyl-1H-pyrazol-3-yl}-2-phenylacetamide]: the Ki was more than 1000 nM.
Take `Cc1cc(NC(=O)Cc2ccccc2)nn1Cc1cc(Cl)ccc1OCc1ccc(Cl)cc1Cl` [Example 125, N-{1-[(5-Chloro-2-{[(2,4-dichlorophenyl)methyl]oxy}phenyl)methyl]-5-methyl-1H-pyrazol-3-yl}-2-phenylacetamide]: the Ki is more than 1000 nM.
`Cc1cc(C(=O)NCc2ccccn2)nn1Cc1cc(Cl)ccc1OCc1ccc(Cl)cc1F` [Example 340, 1-[(5-Chloro-2-{[(4-chloro-2-fluorophenyl)methyl]oxy}phe-nyl)methyl]-5-methyl-N-(2-pyridinylmethyl)-1H-pyrazole-3-carboxamide]: the Ki was more than 1000 nM.
Next, `Cc1cc(-c2cnc(-n3cccn3)[nH]2)nn1Cc1cc(Cl)ccc1OCc1ccccc1` [Example 481, 1-({5-Chloro-2-[(phenylmethyl)oxy]phenyl}methyl)-5-methyl-3-[2-(1H-pyrazol-1-yl)-1H-imidazol-4-yl]-1H-pyrazole hydrochloride]: more than 1000 nM.
The figure for `Cc1cc(OC(=O)NC2CCCCC2)nn1Cc1cc(Cl)ccc1OCc1ccccc1` [Example 43, 1-({5-Chloro-2-[(phenylmethyl)oxy]phenyl}methyl)-5-methyl-1H-pyrazol-3-yl cyclohexylcarbamate] is more than 1000 nM; for `Cc1cc(NC(=O)Cc2ccccc2)nn1Cc1cc(Cl)ccc1OCc1c(F)cc(F)cc1F` [Example 127, N-{1-[(5-Chloro-2-{[(2,4,6-trifluorophenyl)methyl]oxy}phenyl)methyl]-5-methyl-1H-pyrazol-3-yl}-2-phenylacetamide] it is more than 1000 nM.
As for `Cc1cc(OC(=O)NC2CCCCC2)nn1Cc1cc(Cl)ccc1OCC(C)C` [Example 51, 1-({5-Chloro-2-[(2-methylpropyl)oxy]phenyl}methyl)-5-methyl-1H-pyrazol-3-yl cyclohexylcarbamate], the Ki is more than 1000 nM.
Next, `Cc1cc(-c2cnc(N3CCOCC3)[nH]2)nn1Cc1cc(Cl)ccc1OCc1ccccc1` [Example 485, 4-{4-[1-({5-Chloro-2-[(phenylmethyl)oxy]phenyl}methyl)-5-methyl-1H-pyrazol-3-yl]-1H-imidazol-2-yl}morpholine dihydrochloride]: more than 1000 nM; `Cc1cc(NC(=O)Cc2ccccc2)nn1Cc1cc(Cl)ccc1OCc1ccc(F)cc1` [Example 121, N-{1-[(5-Chloro-2-{[(4-fluorophenyl)methyl]oxy}phenyl)methyl]-5-methyl-1H-pyrazol-3-yl}-2-phenylacetamide]: more than 1000 nM.
Turning to `Cc1cc(C(=O)NCc2ccccn2)nn1Cc1cc(Cl)ccc1OCc1ccc(F)c(F)c1F` [Example 339, 1-[(5-Chloro-2-{[(2,3,4-trifluoro-phenyl)methyl]oxy}phe-nyl)methyl]-5-methyl-N-(2-pyridinylmethyl)-1H-pyrazole-3-carboxamide], the Ki is more than 1000 nM.
As for `Cc1cc(-c2cnc(-c3cnccn3)[nH]2)nn1Cc1cc(Cl)ccc1OCc1ccccc1` [Example 482, 2-{4-[1-({5-chloro-2-[(phenylmethyl)oxy]phenyl}methyl)-5-methyl-1H-pyrazol-3-yl]-1H-imidazol-2-yl}pyrazine], the Ki was more than 1000 nM.
With `Cc1cc(NC(=O)Cc2cccnc2)nn1Cc1cc(Cl)ccc1OCc1ccccc1` [Example 148, N-[1-({5-Chloro-2-[(phenylmethyl)oxy]phenyl}methyl)-5-methyl-1H-pyrazol-3-yl]-2-(3-pyridinyl)-acetamide], the Ki was more than 1000 nM.
For the compound `Cc1cc(NC(=O)c2ccco2)nn1Cc1cc(Cl)ccc1OCc1ccccc1` [Example 140, N-[1-({5-Chloro-2-[(phenylmethyl)oxy]phenyl}methyl)-5-methyl-1H-pyrazol-3-yl]-2-furancarboxamide], the Ki was more than 1000 nM.
`Cc1cc(N2CCN(Cc3ccc(Cl)cc3)CC2=O)nn1Cc1cc(Cl)ccc1OCC1CCCCO1` (centres unmarked) [Example 284, 4-[(4-Chlorophenyl)methyl]-1-[1-({5-chloro-2-[(tetrahydro-2H-pyran-2-ylmethyl)oxy]phenyl}methyl)-5-methyl-1H-pyrazol-3-yl]-2-piperazinone]: the Ki was more than 1000 nM.
The figure for `Cc1cc(C(=O)NCc2cccnc2)nn1Cc1cc(Cl)ccc1OCc1ccccc1` [Example 294, 1-({5-Chloro-2-[(phenylmethyl)oxy]phenyl}methyl)-5-methyl-N-(3-pyridinylmethyl)-1H-pyrazole-3-carboxamide] is more than 1000 nM.
